{"source": "patent US20260262643A1", "about": "“HERBICIDAL BENZOXAZINES” (FMC CORPORATION, priority 2022, published 2026)", "key": {"barnyardgrass [1]": {"test_system": "barnyardgrass", "experiment": "Test C preemergence", "format": "in vivo, Echinochloa crusgalli", "conditions": "0 to 100 scale (0 no effect, 100 complete control)", "method_in_brief": "(§1)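 Pre: seeds in loam/sand, directed soil spray. Post: 1–2 leaf plants, 2–10 cm. Cmpd in non-phytotoxic solvent + surfactant. Greenhouse 10 d; visual rating vs untreated, 0 = none, 100 = complete control.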"}, "blackgrass [2]": {"test_system": "blackgrass", "experiment": "Test C preemergence", "format": "in vivo, Alopecurus myosuroides", "conditions": "0 to 100 scale (0 no effect, 100 complete control)", "method_in_brief": "as §1"}, "corn [3]": {"test_system": "corn", "experiment": "Test C preemergence", "format": "in vivo, Zea mays", "conditions": "0 to 100 scale (0 no effect, 100 complete control)", "method_in_brief": "as §1"}, "green foxtail [4]": {"test_system": "green foxtail", "experiment": "Test C preemergence", "format": "in vivo, Setaria viridis", "conditions": "0 to 100 scale (0 no effect, 100 complete control)", "method_in_brief": "as §1"}, "kochia [5]": {"test_system": "kochia", "experiment": "Test C preemergence", "format": "in vivo, Bassia scoparia", "conditions": "0 to 100 scale (0 no effect, 100 complete control)", "method_in_brief": "as §1"}, "oat, wild [6]": {"test_system": "oat, wild", "experiment": "Test C preemergence", "format": "in vivo, Avena fatua", "conditions": "0 to 100 scale (0 no effect, 100 complete control)", "method_in_brief": "as §1"}, "pigweed, palmer [7]": {"test_system": "pigweed, palmer", "experiment": "Test C preemergence", "format": "in vivo, Amaranthus palmeri", "conditions": "0 to 100 scale (0 no effect, 100 complete control)", "method_in_brief": "as §1"}, "ragweed [8]": {"test_system": "ragweed", "experiment": "Test C preemergence", "format": "in vivo, Ambrosia artemisiifolia", "conditions": "0 to 100 scale (0 no effect, 100 complete control)", "method_in_brief": "as §1"}, "ryegrass, Italian [9]": {"test_system": "ryegrass, Italian", "experiment": "Test C preemergence", "format": "in vivo, Lolium multiflorum", "conditions": "0 to 100 scale (0 no effect, 100 complete control)", "method_in_brief": "as §1"}, "soybean [10]": {"test_system": "soybean", "experiment": "Test C preemergence", "format": "in vivo, Glycine max", "conditions": "0 to 100 scale (0 no effect, 100 complete control)", "method_in_brief": "as §1"}, "wheat [11]": {"test_system": "wheat", "experiment": "Test C preemergence", "format": "in vivo, Triticum aestivum", "conditions": "0 to 100 scale (0 no effect, 100 complete control)", "method_in_brief": "as §1"}, "barnyardgrass [12]": {"test_system": "barnyardgrass", "experiment": "Test C postemergence", "format": "in vivo, Echinochloa crusgalli", "conditions": "10 days", "method_in_brief": "as §1"}, "blackgrass [13]": {"test_system": "blackgrass", "experiment": "Test C postemergence", "format": "in vivo, Alopecurus myosuroides", "conditions": "10 days", "method_in_brief": "as §1"}, "corn [14]": {"test_system": "corn", "experiment": "Test C postemergence", "format": "in vivo, Zea mays", "conditions": "10 days", "method_in_brief": "as §1"}, "green foxtail [15]": {"test_system": "green foxtail", "experiment": "Test C postemergence", "format": "in vivo, Setaria viridis", "conditions": "10 days", "method_in_brief": "as §1"}, "kochia [16]": {"test_system": "kochia", "experiment": "Test C postemergence", "format": "in vivo, Bassia scoparia", "conditions": "10 days", "method_in_brief": "as §1"}, "oat, wild [17]": {"test_system": "oat, wild", "experiment": "Test C postemergence", "format": "in vivo, Avena fatua", "conditions": "10 days", "method_in_brief": "as §1"}, "pigweed, palmer [18]": {"test_system": "pigweed, palmer", "experiment": "Test C postemergence", "format": "in vivo, Amaranthus palmeri", "conditions": "10 days", "method_in_brief": "as §1"}, "ragweed [19]": {"test_system": "ragweed", "experiment": "Test C postemergence", "format": "in vivo, Ambrosia artemisiifolia", "conditions": "10 days", "method_in_brief": "as §1"}, "ryegrass, Italian [20]": {"test_system": "ryegrass, Italian", "experiment": "Test C postemergence", "format": "in vivo, Lolium multiflorum", "conditions": "10 days", "method_in_brief": "as §1"}, "soybean [21]": {"test_system": "soybean", "experiment": "Test C postemergence", "format": "in vivo, Glycine max", "conditions": "10 days", "method_in_brief": "as §1"}, "wheat [22]": {"test_system": "wheat", "experiment": "Test C postemergence", "format": "in vivo, Triticum aestivum", "conditions": "10 days", "method_in_brief": "as §1"}, "galium": {"test_system": "galium", "experiment": "Test C postemergence", "format": "in vivo, Galium aparine", "conditions": "125 g ai/ha, postemergence, 10 days; 0 to 100 scale, 0 no effect, 100 complete control", "method_in_brief": "as §1"}, "horseweed": {"test_system": "horseweed", "experiment": "Test C postemergence", "format": "in vivo, Erigeron canadensis", "conditions": "10 days", "method_in_brief": "as §1"}, "barnyardgrass [23]": {"test_system": "barnyardgrass", "experiment": "Test D flooded paddy test", "format": "in vivo, Echinochloa crus-galli", "conditions": "250 g ai/ha, applied to paddy water, visual rating after 13 to 14 days, scale 0 to 100 (0 no effect, 100 complete control)", "method_in_brief": "(§2)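 Post-flood water application at the 2-leaf stage; 3 cm flood depth kept constant; visual control rating 0–100 after 13–14 days greenhouse growth.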"}, "ducksalad": {"test_system": "ducksalad", "experiment": "Test D flooded paddy test", "format": "in vivo, Heteranthera limosa", "conditions": "250 g ai/ha, applied to paddy water, visual rating after 13 to 14 days, scale 0 to 100 (0 no effect, 100 complete control)", "method_in_brief": "as §2"}, "rice": {"test_system": "rice", "experiment": "Test D flooded paddy test", "format": "in vivo, Oryza sativa", "conditions": "250 g ai/ha, applied to paddy water, visual rating after 13 to 14 days, scale 0 to 100 (0 no effect, 100 complete control)", "method_in_brief": "as §2"}, "sedge, umbrella": {"test_system": "sedge, umbrella", "experiment": "Test D flooded paddy test", "format": "in vivo, Cyperus difformis", "conditions": "250 g ai/ha, applied to paddy water, visual rating after 13 to 14 days, scale 0 to 100 (0 no effect, 100 complete control)", "method_in_brief": "as §2"}, "[24]": {"conditions": "Preemergence, 500 g ai/ha, visual rating after 10 days"}, "[25]": {"conditions": "Test C, preemergence, 125 g ai/ha"}, "[26]": {"conditions": "125 g ai/ha, postemergence, 0 to 100 scale, 0 no effect, 100 complete control"}, "[27]": {"conditions": "Postemergence, 500 g ai/ha, visual 0 to 100 scale (0 no effect, 100 complete control)"}}}
{"smiles": "Cc1cccc2c1O[C@@H](C)CN2C(=O)c1cccc(-n2cnc(C#N)c2)c1", "note": "[Compound 233]", "values": [{"measurement": "Plant response rating, Barnyardgrass", "setting": "barnyardgrass [1]; [24]", "value": 60}, {"measurement": "Barnyardgrass plant response rating", "setting": "barnyardgrass [1]; [25]", "value": 0}, {"measurement": "Plant response rating, Blackgrass", "setting": "blackgrass [2]; [24]", "value": 30}, {"measurement": "Blackgrass plant response rating", "setting": "blackgrass [2]; [25]", "value": 10}, {"measurement": "Plant response rating, Corn", "setting": "corn [3]; [24]", "value": 20}, {"measurement": "Corn plant response rating", "setting": "corn [3]; [25]", "value": 0}, {"measurement": "Plant response rating, Foxtail, Green", "setting": "green foxtail [4]; [24]", "value": 80}, {"measurement": "Foxtail, Green plant response rating", "setting": "green foxtail [4]; [25]", "value": 0}, {"measurement": "Plant response rating, Kochia", "setting": "kochia [5]; [24]", "value": 0}, {"measurement": "Kochia plant response rating", "setting": "kochia [5]; [25]", "value": 0}, {"measurement": "Plant response rating, Oat, Wild", "setting": "oat, wild [6]; [24]", "value": 0}, {"measurement": "Oat, Wild plant response rating", "setting": "oat, wild [6]; [25]", "value": 0}, {"measurement": "Plant response rating, Pigweed, Palmer", "setting": "pigweed, palmer [7]; [24]", "value": 0}, {"measurement": "Pigweed, Palmer plant response rating", "setting": "pigweed, palmer [7]; [25]", "value": 0}, {"measurement": "Plant response rating, Ragweed", "setting": "ragweed [8]; [24]", "value": 70}, {"measurement": "Ragweed plant response rating", "setting": "ragweed [8]; [25]", "value": 0}, {"measurement": "Plant response rating, Ryegrass, Italian", "setting": "ryegrass, Italian [9]; [24]", "value": 60}, {"measurement": "Ryegrass, Italian plant response rating", "setting": "ryegrass, Italian [9]; [25]", "value": 10}, {"measurement": "Plant response rating, Soybean", "setting": "soybean [10]; [24]", "value": 10}, {"measurement": "Soybean plant response rating", "setting": "soybean [10]; [25]", "value": 0}, {"measurement": "Plant response rating, Wheat", "setting": "wheat [11]; [24]", "value": 0}, {"measurement": "Wheat plant response rating", "setting": "wheat [11]; [25]", "value": 0}, {"measurement": "Plant response rating, Barnyardgrass", "setting": "barnyardgrass [12]; [26]", "value": 10}, {"measurement": "Plant response rating, Barnyardgrass", "setting": "barnyardgrass [12]; [27]", "value": 20}, {"measurement": "Plant response rating, Blackgrass", "setting": "blackgrass [13]; [26]", "value": 0}, {"measurement": "Plant response rating, Blackgrass", "setting": "blackgrass [13]; [27]", "value": 40}, {"measurement": "Plant response rating, Corn", "setting": "corn [14]; [26]", "value": 0}, {"measurement": "Plant response rating, Corn", "setting": "corn [14]; [27]", "value": 20}, {"measurement": "Plant response rating, Foxtail, Green", "setting": "green foxtail [15]; [26]", "value": 20}, {"measurement": "Plant response rating, Foxtail, Green", "setting": "green foxtail [15]; [27]", "value": 20}, {"measurement": "Plant response rating, Kochia", "setting": "kochia [16]; [26]", "value": 0}, {"measurement": "Plant response rating, Kochia", "setting": "kochia [16]; [27]", "value": 10}, {"measurement": "Plant response rating, Oat, Wild", "setting": "oat, wild [17]; [26]", "value": 0}, {"measurement": "Plant response rating, Oat, Wild", "setting": "oat, wild [17]; [27]", "value": 20}, {"measurement": "Plant response rating, Pigweed, Palmer", "setting": "pigweed, palmer [18]; [26]", "value": 0}, {"measurement": "Plant response rating, Pigweed, Palmer", "setting": "pigweed, palmer [18]; [27]", "value": 10}, {"measurement": "Plant response rating, Ragweed", "setting": "ragweed [19]; [26]", "value": 0}, {"measurement": "Plant response rating, Ragweed", "setting": "ragweed [19]; [27]", "value": 20}, {"measurement": "Plant response rating, Ryegrass, Italian", "setting": "ryegrass, Italian [20]; [26]", "value": 0}, {"measurement": "Plant response rating, Ryegrass, Italian", "setting": "ryegrass, Italian [20]; [27]", "value": 60}, {"measurement": "Plant response rating, Soybean", "setting": "soybean [21]; [26]", "value": 70}, {"measurement": "Plant response rating, Soybean", "setting": "soybean [21]; [27]", "value": 80}, {"measurement": "Plant response rating, Wheat", "setting": "wheat [22]; [26]", "value": 10}, {"measurement": "Plant response rating, Wheat", "setting": "wheat [22]; [27]", "value": 10}, {"measurement": "Plant response rating, Galium", "setting": "galium", "value": 50}, {"measurement": "Plant response rating, Horseweed", "setting": "horseweed; [26]", "value": 0}, {"measurement": "Plant response rating, Horseweed", "setting": "horseweed; [27]", "value": 0}, {"measurement": "Plant response rating, Barnyardgrass (Flood)", "setting": "barnyardgrass [23]", "value": 0}, {"measurement": "Plant response rating, Ducksalad (Flood)", "setting": "ducksalad", "value": 0}, {"measurement": "Plant response rating, Rice (Flood)", "setting": "rice", "value": 0}, {"measurement": "Plant response rating, Sedge, Umbrella (Flood)", "setting": "sedge, umbrella", "value": 0}]}
